Results as given in patent US20170334899A1, “AMINO-SUBSTITUTED ISOTHIAZOLES” (Bayer Pharma Aktiengesellschaft, priority 2014, published 2017).
pIC50: −log10 of the molar value.

Columns and labels:
Format in all cases: cell-based
[1] = tested on: HeLa-MaTu-ADR; test: Proliferation assay (crystal violet), HeLa-MaTu-ADR; settings: 96 h; HeLa-MaTu-ADR cells; 4 days incubation; crystal violet staining; read-out: IC50 inhibition of proliferation, HeLa-MaTu-ADR
Method: (§1) Cultivated tumor cells (cells were ordered from ATCC, except HeLa-MaTu and HeLa-MaTu-ADR, which were ordered from EPO-GmbH, Berlin) were plated at a density of 1000 to 5000 cells/well, depending on the growth rate of the respective cell line, in a 96-well multititer plate in 200 μL of their respective growth medium supplemented 10% fetal calf serum. After 24 hours, the cells of one plate (zero-point plate) were stained with crystal violet (see below), while the medium of the other plates was replaced by fresh culture medium (200 μl), to which the test substances were added in various concentrations (0 μM, as well as in the range of 0.001-10 μM; the final concentration of the solvent dimethyl sulfoxide was 0.5%). The cells were incubated for 4 days in the presence of test substances. Cell proliferation was determined by staining the cells with crystal violet: the cells were fixed by adding 20 μl/measuring point of an 11% glutaric aldehyde solution for 15 minutes at room temperature. After three washing cycles of the fixed cells with water, the plates were dried at room temperature. The cells were stained by adding 100 μl/measuring point of a 0.1% crystal violet solution (pH 3.0). After three washing cycles of the stained cells with water, the plates were dried at room temperature. The dye was dissolved by adding 100 μl/measuring point of a 10% acetic acid solution. Absorbtion was determined by photometry at a wavelength of 595 nm. The change of cell number, in percent, was calculated by normalization of the measured values to the aborbtion values of the zero-point plate (=0%) and the absorbtion of the untreated (0 μm) cells (=100%). The IC50 values were determined by means of a 4 parameter fit.

[2] = tested on: NCI-H460; test: Proliferation assay (crystal violet), NCI-H460; settings: Homo sapiens, 96 h; NCI-H460 cells; 4 days incubation; crystal violet staining; read-out: IC50 inhibition of proliferation, NCI-H460
Method: as §1

[3] = tested on: DU145; test: Proliferation assay (crystal violet), DU145; settings: Homo sapiens, DU-145, 96 h; DU145 cells; 4 days incubation; crystal violet staining; read-out: IC50 inhibition of proliferation, DU145
Method: as §1

[4] = tested on: Caco-2; test: Proliferation assay (crystal violet), Caco-2; settings: Homo sapiens, 96 h; Caco-2 cells; 4 days incubation; crystal violet staining; read-out: IC50 inhibition of proliferation, Caco2
Method: as §1

[5] = tested on: B16F10; test: Proliferation assay (crystal violet), B16F10; settings: Mus musculus, B16-F10, 96 h; B16F10 cells; 4 days incubation; crystal violet staining; read-out: IC50 inhibition of proliferation, B16F10
Method: as §1

Row | Compound | pIC50 [1] | pIC50 [2] | pIC50 [3] | pIC50 [4] | pIC50 [5]
1 | Cc1nsc(Nc2cnc(C(F)(F)F)cn2)c1C(=O)Nc1ccc(OC2CCN(CCF)CC2)nc1 [Example 7, N-(6-{[1-(2-Fluoroethyl)piperidin-4-yl]oxy}pyridin-3-yl)-3-methyl-5-{[5-(trifluoromethyl)pyrazin-2-yl]amino}-1,2-thiazole-4-carboxamide] | 6.28 | 6.09 | 5.85 | 6.04 | 5.82
2 | Cc1nsc(Nc2cnc(C(F)(F)F)cn2)c1C(=O)Nc1ccc(OC2CCN(CC(F)F)CC2)nc1 [Example 8, N-(6-{[1-(2,2-Difluoroethyl)piperidin-4-yl]oxy}pyridin-3-yl)-3-methyl-5-{[5-(trifluoromethyl)pyrazin-2-yl]amino}-1,2-thiazole-4-carboxamide] | 6.96 | 7.00 | 6.60 | 6.82 | 6.68
3 | Cc1nsc(Nc2cnc(C(F)(F)F)cn2)c1C(=O)Nc1ccc(OC2CCN(CC(F)(F)F)CC2)nc1 [Example 9, -Methyl-N-(6-{[1-(2,2,2-trifluoroethyl)piperidin-4-yl]oxy}pyridin-3-yl)-5-{[5-(trifluoromethyl)pyrazin-2-yl]amino}-1,2-thiazole-4-carboxamide] | 6.89 | 7.01 | 6.52 | 6.80 | 6.72
4 | Cc1nsc(Nc2cnc(C(F)(F)F)cn2)c1C(=O)Nc1ccc(OC2CCN(CCC(F)(F)F)CC2)nc1 [Example 10, 3-Methyl-5-{[5-(trifluoromethyl)pyrazin-2-yl]amino}-N-(6-{[1-(3,3,3-trifluoropropyl)-piperidin-4-yl]oxy}pyridin-3-yl)-1,2-thiazole-4-carboxamide] | 7.24 | 6.77 | 6.85 | 6.74 | 6.52
5 | Cc1nsc(Nc2cncc(C(F)(F)F)n2)c1C(=O)Nc1ccc(OC2CCN(C(=O)OC(C)(C)C)CC2)nc1 [Example 12, tert-Butyl 4-[(5-{[(3-methyl-5-{[6-(trifluoromethyl)pyrazin-2-yl]amino}-1,2-thiazol-4-yl)carbonyl]amino}pyridin-2-yl)oxy]piperidine-1-carboxylate] | 6.19 | 6.57 | 5.96 | 6.33 | 6.40
6 | Cc1nsc(Nc2cnc(C(F)(F)F)cn2)c1C(=O)Nc1ccc(C(=O)OC(C)(C)C)cc1 [Example 96, tert-Butyl 4-{[(3-methyl-5-{[5-(trifluoromethyl)pyrazin-2-yl]amino}-1,2-thiazol-4-yl)carbonyl]amino}benzoate] | 6.39 | 6.13 | 6.10 | 6.48 | 5.96
7 | Cc1nsc(Nc2ccc(C#N)cn2)c1C(=O)Nc1ccc(C(=O)OC(C)(C)C)cc1 [Example 98, tert-Butyl 4-[({5-[(5-cyanopyridin-2-yl)amino]-3-methyl-1,2-thiazol-4-yl}carbonyl)-amino]benzoate] | 6.82 | 6.77 | 6.34 | 6.96 | 6.34
8 | Cc1nsc(Nc2cnc3ccccc3n2)c1C(=O)Nc1cccc(-c2nc(C(C)(C)C)no2)c1 [Example 108, N-[3-(3-tert-Butyl-1,2,4-oxadiazol-5-yl)phenyl]-3-methyl-5-(quinoxalin-2-ylamino)-1,2-thiazole-4-carboxamide] | 6.48 | 6.54 | 6.24 | 6.52 | 6.15
9 | Cc1nsc(Nc2cnc(C(F)(F)F)cn2)c1C(=O)Nc1ccc(OCC2CCN(C(=O)OC(C)(C)C)C2)nc1 (stereo not drawn) [Example 109, tert-Butyl 3-{[(5-{[(3-methyl-5-{[5-(trifluoromethyl)pyrazin-2-yl]amino}-1,2-thiazol-4-yl)carbonyl]amino}pyridin-2-yl)oxy]methyl}pyrrolidine-1-carboxylate] | 6.77 | 6.64 | 6.18 | 6.55 | 6.46
10 | Cc1nsc(Nc2cncc(C(F)(F)F)n2)c1C(=O)Nc1ccc(OCC2CCN(C(=O)OC(C)(C)C)C2)nc1 (stereo not drawn) [Example 110, tert-Butyl 3-{[(5-{[(3-methyl-5-{[6-(trifluoromethyl)pyrazin-2-yl]amino}-1,2-thiazol-4-yl)carbonyl]amino}pyridin-2-yl)oxy]methyl}pyrrolidine-1-carboxylate] | 6.02 | 6.44 | 5.70 | 5.82 | 6.10
11 | Cc1nsc(Nc2cnc3ccccc3n2)c1C(=O)Nc1ccc(Oc2cccc(C(F)(F)F)c2)nc1 [Example 117, 3-Methyl-5-(quinoxalin-2-ylamino)-N-{6-[3-(trifluoromethyl)phenoxy]pyridin-3-yl}-1,2-thiazole-4-carboxamide] | 6.18 | 6.52 | 6.51 | 7.00 | 6.14
12 | Cc1nsc(Nc2ccc(C#N)cn2)c1C(=O)Nc1ccc(Oc2cccc(C(F)(F)F)c2)nc1 [Example 118, 5-[(5-Cyanopyridin-2-yl)amino]-3-methyl-N-{6-[3-(trifluoromethyl)phenoxy]pyridin-3-yl}-1,2-thiazole-4-carboxamide] | 6.49 | 6.32 | 6.12 | 6.47 | 6.42
